The values that follow come from patent US20130217694A1, “METHOD OF REDUCING THE SEVERITY OF INFLAMMATORY DERMATOLOGICAL CONDITIONS” (Allergan, Inc.., priority 2003, published 2013).

The target of one test is T1, human α-2C receptor (Homo sapiens, UniProt P18825).
T1 construct: expressed in transfected cells; host or cells: PC12 cells (retroviral vector pCL BABE Puro)
T1 sequence (P18825 1-462): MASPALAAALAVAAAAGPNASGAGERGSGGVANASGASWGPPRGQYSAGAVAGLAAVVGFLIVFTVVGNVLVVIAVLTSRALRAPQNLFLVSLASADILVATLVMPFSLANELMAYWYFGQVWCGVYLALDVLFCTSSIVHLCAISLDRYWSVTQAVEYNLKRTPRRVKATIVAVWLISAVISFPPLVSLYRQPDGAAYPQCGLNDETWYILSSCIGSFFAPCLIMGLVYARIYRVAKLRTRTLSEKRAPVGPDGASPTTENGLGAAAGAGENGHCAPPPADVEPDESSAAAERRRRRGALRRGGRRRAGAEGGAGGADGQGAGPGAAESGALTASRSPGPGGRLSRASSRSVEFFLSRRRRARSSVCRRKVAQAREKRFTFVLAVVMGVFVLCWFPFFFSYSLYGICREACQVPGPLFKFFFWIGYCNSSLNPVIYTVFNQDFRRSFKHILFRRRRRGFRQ
Briefly: Inhibition of forskolin-induced cAMP accumulation in PC12 cells expressing human α-2C receptor. The format is cell-based. The settings on record: percent efficacy relative to brimonidine. Here is the method:
The human α-2A and α-2C receptor supernatants were added, in varying amounts, to naive PC12 cells, which were then incubated for 48 hours. The transduced cell populations were replated at a lower density and grown in media containing 100 ug/ml puromycin.
Intracellular cAMP measurement was performed as follows. PC12 cells stably expressing the human α-2A or human α-2C adrenergic receptors were plated in 96-well poly-D-lysine coated plates at a density of 30,000 cells per well in 100 μl DMEM supplemented with 10% horse serum, 5% heat inactivated fetal bovine serum, 1% antibiotic-antimycotic and 100 μg/ml puromycin. Cells were grown overnight at 37° C. and 5% CO2. Cells were dosed by adding an equal volume of media containing IBMX (to a final concentration of 1 mM), forskolin (to a final concentration of 10 μM) and the appropriate drug dilution (to a final concentration of between 10^−5 M and 10^−12 M). After a 10 minute incubation, the media was aspirated and the cells lysed with 200 μl lysis buffer (Amersham Biosciences; Piscataway, N.J.). Plates were stored at −20° C. for up to 24 hours prior to assay. Intracellular cAMP was determined using the Biotrak cAMP enzyme immunoassay system (Amersham Biosciences) according to the manufacturer's instructions. Plates were read on a plate reader at 450 nm.

The target in test [1] is T2, hamster α-1B adrenergic receptor (Mesocricetus auratus, UniProt P18841).
T2 sequence (P18841 1-515): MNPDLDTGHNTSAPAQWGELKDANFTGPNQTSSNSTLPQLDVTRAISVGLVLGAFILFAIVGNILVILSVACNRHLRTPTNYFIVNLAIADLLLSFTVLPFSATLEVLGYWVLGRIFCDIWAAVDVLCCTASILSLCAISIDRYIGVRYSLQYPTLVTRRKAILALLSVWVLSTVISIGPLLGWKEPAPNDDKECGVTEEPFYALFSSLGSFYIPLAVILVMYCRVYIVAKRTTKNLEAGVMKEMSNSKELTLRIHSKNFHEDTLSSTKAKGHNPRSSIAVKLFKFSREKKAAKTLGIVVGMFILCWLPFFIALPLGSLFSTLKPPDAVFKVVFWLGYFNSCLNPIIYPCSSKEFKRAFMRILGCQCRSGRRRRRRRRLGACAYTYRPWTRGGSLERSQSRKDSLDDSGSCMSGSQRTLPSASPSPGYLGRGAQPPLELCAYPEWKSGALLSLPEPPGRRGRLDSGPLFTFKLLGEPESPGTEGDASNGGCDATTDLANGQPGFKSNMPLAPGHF
The format is cell-based. The settings on record: for hamster α1B % E: percent efficacy relative to phenylephrine; for agonist activity at the α-1B receptor: result in words. Here is the method:
The bovine α-1A and hamster α-1B receptor supernatants were added, in varying amounts, to naive HEK293 cells, which were then incubated for 48 hours. The transduced cell populations were replated at a lower density and grown in media containing 0.25 ug/ml puromycin. […] Receptor density was measured in a prazosin radioligand binding assay.
Intracellular Ca^+2 responses were measured as follows in HEK293 cells stably expressing either the bovine α-1A or hamster α-1B adrenergic receptor. Between 40,000 to 50,000 cells were plated per well in 96-well poly-D-lysine coated plates in 0.2 ml DMEM containing 10% heat-inactivated fetal calf serum, 1% antibiotic-antimycotic and 0.25 μg/ml puromycin one day prior to use. Cells were washed twice with HBSS supplemented with 10 mM HEPES, 2.0 mM CaCl2 and 2.5 mM probenicid, and subsequently incubated at 37° C. for 60 minutes with 4 μM Fluo-4 (Molecular Probes; Eugene, Oreg.). The extracellular dye was washed from the plates twice prior to placing the plates in the fluorometric imaging plate reader (FLIPR; Molecular Devices; Sunnyvale, Calif.). Ligands were diluted in HBSS and aliquoted into a 96-well microplate. Drugs were tested over the concentration range of 0.64 nM to 10,000 nM. Data for Ca^+2 responses were obtained in arbitrary fluorescence units.

The test system of another test is mice. The settings on record: intraperitoneal dosing, wildtype mice; result in words. Here is the method:
The tactile hypersensitivity of 5-6 mice per group was scored every five minutes between 15 and 50 minutes following intraperitoneal dosing. […] In addition, the locomoter activity of 5-6 mice per group was measured in a five minute period 30 minutes following intraperitoneal dosing. The locomoter activity relative to vehicle-treated animals was expressed as a percentage; percentage sedation was calculated as 100% minus the percent locomoter activity.

Turning to `Clc1cccc(Cl)c1N=C1NCCN1` [Clonidine], at human α-2C receptor, the “human α2C % E” value is recorded as 84%. For the same molecule, in test [1], the “hamster α1B % E” value is on record as 63% and the “agonist activity at the α-1B receptor” value is “partial agonists”.
`Brc1c(NC2=NCCN2)ccc2nccnc12` [Brimonidine, 5-bromo-6-(2-imidazolin-2-ylamino)quinoxaline]: the “human α2C % E” value on human α-2C receptor is given as 93%. In the test on mice, the “alleviation of sulprostone-induced tactile hypersensitivity in the absence of sedation” value is “alleviates sulprostone-induced tactile hypersensitivity in the absence of sedation”. In test [1], the “hamster α1B % E” value stood at 12% and the “agonist activity at the α-1B receptor” value is “no activity”.
